In patent publication US20260174780A1, “BISMUTH-THIOL COMPOSITIONS AND METHODS FOR TREATING INFLAMMATORY DISEASES” (Microbion Corporation, priority 2022, published 2026):
Entries after “also recorded” stand apart in the source; their conditions may differ.

Experiments:
HUVEC cells = assay: Cytokine ELISA in HUVEC cells; assay type: cell-based, human; conditions: 0.5, 1, 2 or 4 μg/mL, 24 hours, compared to untreated cells
Protocol: (§1) Protocol: HUVEC cells were grown in tissue culture flasks and a 24-well plate was seeded with 2×10^5 cells/well and incubated at 37° C. and 5% CO2 for 48 hours. Select wells were treated with either 4 μg/mL, 2 μg/mL, 1 μg/mL, or 0.5 μg/mL BisEDT or left untreated as a control and incubated at 37° C. and 5% CO2 for 24 hours. Cell culture supernatant was collected from each well and stored at −20° C. until further ELISA analysis. On the day of the ELISA assays to determine the expression of each cytokine, cell culture supernatant was thawed, and the assays performed following the manufacturer's instructions. Cells were collected for RNA isolation using Qiagen RNeasy kit using manufacturer's instructions. Briefly, genomic DNA was degraded with DNase (Roche) and samples were incubated at 37° C. for 1 hour followed by 3 μL DNase inactivation reagent (Invitrogen) incubated at 37° C. for 2 minutes. Samples were centrifuged at maximum speed for 5 minutes to remove the inactivation reagent. RNA concentration and quality was evaluated using a Nanodrop. RNA samples were utilized to generate cDNA using cDNA synthesis kit (Bio-Rad). qPCR for AIM2 and actin (housekeeping gene) was conducted using SYBR green kit (Bio-Rad) along with standard.

AIM2 inflammasome [1] = assay: RT-qPCR of AIM2 inflammasome expression in THP-1 macrophages, uninfected or infected; assay type: cell-based
Protocol: (§2) THP-1 macrophages were differentiated with 50 ng/ml PMA for 24 hours, followed by 24 hours in media prior to infection. Differentiated THP-1 macrophages were infected with M. avium or M. abscessus for 1 hour with an MOI of 5. Infected cells were washed twice, followed by 1 hour of antibiotic treatment with 200 μg/ml of amikacin to remove extracellular bacteria. After the antibiotic treatment step, cells were washed once more and BisEDT (BIZ) was added at the indicated concentrations. The treatments (see Table 2) included: (1) uninfected, (2) uninfected+range of BisEDT, (3) untreated+infected with M. avium, (4) M. avium infected+BIZ, (5) untreated+M. abscessus, and (6) M. abscessus infected+BIZ. The time points for sample preparation were 48 hours post infection. CFUs were determined as described above and RNA was collected from similar experiments.
(§3) THP-1 RNA from the cells was isolated using the Rneasy mini kit (Qiagen), followed by treatment with Dnase 1 recombinant (Roche Diagnostics) for 1 hour at 37° C. to remove contaminating genomic DNA. The DNase was inactivated with Turbo DNase-inactivation reagent (Turbo DNA-free kit, Thermo Fisher Scientific) for 2 min at 37° C. Inactivation reagent was removed via centrifugation for 1 min at 10,000×g, and RNA transferred to new collection tubes. RNA samples were stored at […] for future processing. cDNA was transcribed from host RNA using the iScript cDNA synthesis kit (Bio-Rad). The quality of cDNA was tested by PCR with Gold 360 master mix using the manufacturer's specifications (Thermo Fisher Scientific). The RT-qPCR reaction was performed using iQ SYBR Green Supermix (Bio-Rad) and an iCycler (CFX Connect Real-Time Systems, Bio-Rad) as previously described (1). Standard curves for each gene were run in each reaction and used to calculate absolute values of mRNA. Gene expression data are presented as relative expression to beta-actin. Primers (Table 3) were designed in Primer3 using sequences from GenBank (National Center for Biotechnology Information).

NLRP3 inflammasome = assay: RT-qPCR of NLRP3 inflammasome expression in THP-1 macrophages, uninfected or infected; assay type: cell-based
Protocol: as §2, with “After the antibiotic treatment step, cells were washed once more and BisEDT (BIZ) was added at the indicated concentrations.” left out
as §3

AIM2 inflammasome [2] = assay: qPCR of AIM2 in HUVEC cells; assay type: cell-based, human; conditions: HUVEC cells, 0.5, 1, 2 or 4 μg/mL, 24 hours, compared to untreated cells
Protocol: as §1

BEAS-2B cells = assay: Cytokine ELISA in BEAS-2B cells; assay type: cell-based, human; conditions: 0.5, 1, 2 or 4 μg/mL, 24 hours, compared to untreated cells
Protocol: as §1, with “Protocol: BEAS-2B” for “Protocol: HUVEC”, “using manufacturers'” for “using manufacturer's”, “with standards.” for “with standard.”

A549 cells = assay: IL-10 expression (ELISA) in A549 cells; assay type: cell-based, human; conditions: 2 μg/mL and 4 μg/mL, 24 h, compared to untreated control
Protocol: A549 cells were differentiated with 50 ng/mL PMA for 24 hours, followed by 24 hours in media prior to infection. Cells were washed with media and treated with insoluble BisEDT or other antibiotics, and incubated for 24 h post treatment. Cell media was then removed and frozen at −80° C. Samples were briefly vortexed before conducting ELISA analysis for IL-10 expression (FIG. 1). BisEDT at a concentration of 2 μg/mL and 4 μg/mL increased the level of IL-10 expression level in A549 cells compared to untreated control.

Structure (SMILES): C1C[S][Bi]([S]CC[S][Bi]2[S]CC[S]2)[S]1 [BisEDT, 1,2-(Bis(1,3-dithia-2-bismolane)thio)ethane]
- expression of IL-18 (HUVEC cells): Consistent reduction
- expression of TNF-α (HUVEC cells): Consistent reduction
- AIM2 gene expression relative to beta-actin (AIM2 inflammasome [1]; M. abscessus infected THP-1 cells + 1 μg/ml BisEDT): even greater increase of expression
- AIM2 gene expression relative to beta-actin (AIM2 inflammasome [1]; M. avium infected THP-1 cells + BisEDT (2, 4 μg/ml)): did not change the gene expression
- AIM2 gene expression relative to beta-actin (AIM2 inflammasome [1]; uninfected THP-1 macrophages, 0.5-4 μg/ml BisEDT, 48 hours): The higher the dose, the more AIM2 gene expression was reduced; also recorded: inhibits AIM2 and NLRP3 inflammasome expression
- inhibitory effect on NLRP3 expression (NLRP3 inflammasome; BisEDT used after the infections): the inhibitory effect was not observed
- NLRP3 expression (NLRP3 inflammasome; M. abscessus (MAB 19977) infected cells pretreated with 0.5 μg/ml): reduced NLRP3 expression
- NLRP3 expression (NLRP3 inflammasome; M. abscessus infected cells): remained unchanged
- NLRP3 expression (NLRP3 inflammasome; M. avium (MAH 104) infected cells pre-treated with 2 μg/ml, vs M. avium only infected cells): higher NLRP3 expression
- NLRP3 expression (NLRP3 inflammasome; MAH 104 infection, 4 μg/ml treatment, vs MAH 104 infected cells): reduced NLRP3 expression
- NLRP3 inhibition (NLRP3 inflammasome; NTM-infected macrophages): even greater dose-related NLRP3 inhibition
- NLRP3 expression (NLRP3 inflammasome; pre-treatment with 1 μg/ml prior to MAB 19977 infection): did not impact NLRP3 expression
- NLRP3 inflammasome expression relative to beta-actin (NLRP3 inflammasome; uninfected THP-1 cells): dose-related inhibitory effect; also recorded: inhibits AIM2 and NLRP3 inflammasome expression
- AIM2 inflammasome expression (AIM2/Actin copy number) (AIM2 inflammasome [2]): inhibit AIM2 inflammasome expression
- expression of IL-1β (BEAS-2B cells): Consistent reduction
- expression of IL-10 (BEAS-2B cells): consistent increase
- expression of TNF-α (BEAS-2B cells): Consistent reduction
- IL-10 expression level (A549 cells): increased
